PubChem BioAssay (NCI)
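Abbreviation: GI50, concentration required for 50% inhibition of growth. TGI is the concentration that stops growth completely.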

Experiments:
Assay in all cases: growth of human tumour cells (NCI), 384-well format
[1] = tested on: HS 578T breast
[2] = tested on: ACHN renal
[3] = tested on: SNB-75 CNS
[4] = tested on: UO-31 renal
[5] = tested on: IGROV1 ovarian
[6] = tested on: OVCAR-4 ovarian
[7] = tested on: KM12 colon
[8] = tested on: SNB-19 CNS
[9] = tested on: EKVX NSCLC
[10] = tested on: A549 NSCLC
[11] = tested on: RPMI-8226 leukemia
[12] = tested on: UACC-257 melanoma
[13] = tested on: SK-MEL-5 melanoma
[14] = tested on: SF-268 CNS
[15] = tested on: HCT-15 colon
[16] = tested on: HT29 colon
[17] = tested on: SF-539 CNS
[18] = tested on: HOP-92 NSCLC
[19] = tested on: HL-60(TB) leukemia
[20] = tested on: T-47D breast
[21] = tested on: M14 melanoma
[22] = tested on: MDA-MB-435 melanoma
[23] = tested on: TK-10 renal
[24] = tested on: K-562 leukemia
[25] = tested on: MDA-MB-468 breast
[26] = tested on: A498 renal
[27] = tested on: HOP-62 NSCLC
[28] = tested on: MCF7 breast
[29] = tested on: OVCAR-8 ovarian
[30] = tested on: SW-620 colon
[31] = tested on: 786-0 renal
[32] = tested on: SK-MEL-28 melanoma
[33] = tested on: COLO 205 colon
[34] = tested on: SN12C renal
[35] = tested on: HCT-116 colon
[36] = tested on: UACC-62 melanoma
[37] = tested on: NCI-H460 NSCLC
[38] = tested on: CAKI-1 renal
[39] = tested on: CCRF-CEM leukemia
[40] = tested on: MDA-MB-231 breast
[41] = tested on: DU-145 prostate
[42] = tested on: SK-OV-3 ovarian
[43] = tested on: MALME-3M melanoma
[44] = tested on: NCI/ADR-RES ovarian
[45] = tested on: NCI-H23 lung
[46] = tested on: RXF 393 renal
[47] = tested on: PC-3 prostate
[48] = tested on: BT-549 breast
[49] = tested on: OVCAR-5 ovarian
[50] = tested on: MOLT-4 leukemia
[51] = tested on: NCI-H226 lung
[52] = tested on: OVCAR-3 ovarian
[53] = tested on: HCC-2998 colon
[54] = tested on: SF-295 CNS
[55] = tested on: NCI-H322M lung
[56] = tested on: LOX IMVI melanoma
[57] = tested on: U251 glioblastoma
[58] = tested on: SK-MEL-2 melanoma

CC(C)c1cnc(-c2cc(Cl)ccc2F)cc1Nc1ccncc1C(=O)NC(CO)CO
GI50 [1]: 10.5 µM
TGI [1]: 22.3 µM
GI50 [2]: 2340 nM
TGI [2]: 15.3 µM
GI50 [3]: 12.1 µM
TGI [3]: 24.5 µM
GI50 [4]: 12.7 µM
TGI [4]: 25.4 µM
GI50 [5]: 13.2 µM
TGI [5]: 26 µM
GI50 [6]: 581 nM
TGI [6]: 2650 nM
GI50 [7]: 2760 nM
TGI [7]: 15.9 µM
GI50 [8]: 13.1 µM
TGI [8]: 25.9 µM
GI50 [9]: 2570 nM
TGI [9]: 16.8 µM
GI50 [10]: 2220 nM
TGI [10]: 15 µM
GI50 [11]: 172 nM
TGI [11]: 2 µM
GI50 [12]: 12.5 µM
TGI [12]: 25.1 µM
GI50 [13]: 11.6 µM
TGI [13]: 23.8 µM
GI50 [14]: 3.8 µM
TGI [14]: 17.6 µM
GI50 [15]: 12.7 µM
TGI [15]: 25.3 µM
GI50 [16]: 13.3 µM
TGI [16]: 26.1 µM
GI50 [17]: 1160 nM
TGI [17]: 11.6 µM
GI50 [18]: 6.81 µM
TGI [18]: 19.8 µM
GI50 [19]: 263 nM
TGI [19]: 1570 nM
GI50 [20]: 3.81 µM
TGI [20]: 17.2 µM
GI50 [21]: 4.27 µM
TGI [21]: 19 µM
GI50 [22]: 9.98 µM
TGI [22]: 21.6 µM
GI50 [23]: 10.3 µM
TGI [23]: 22.1 µM
GI50 [24]: 7.06 µM
TGI [24]: 19.5 µM
GI50 [25]: 4.51 µM
TGI [25]: 15.1 µM
GI50 [26]: 2330 nM
TGI [26]: 16.1 µM
GI50 [27]: 10.6 µM
TGI [27]: 22.4 µM
GI50 [28]: 124 nM
TGI [28]: 5.16 µM
GI50 [29]: 1570 nM
TGI [29]: 5.09 µM
GI50 [30]: 5.89 µM
TGI [30]: 19.5 µM
GI50 [31]: 9.73 µM
TGI [31]: 21.5 µM
GI50 [32]: 7.17 µM
TGI [32]: 20.5 µM
GI50 [33]: 2560 nM
TGI [33]: 14 µM
GI50 [34]: 11.4 µM
TGI [34]: 23.6 µM
GI50 [35]: 10.7 µM
TGI [35]: 22.6 µM
GI50 [36]: 852 nM
TGI [36]: 18.2 µM
GI50 [37]: 12.3 µM
TGI [37]: 24.8 µM
GI50 [38]: 10.4 µM
TGI [38]: 22.1 µM
GI50 [39]: 5.22 µM
TGI [39]: 17.1 µM
GI50 [40]: 964 nM
TGI [40]: 14.5 µM
GI50 [41]: 11.5 µM
TGI [41]: 23.7 µM
GI50 [42]: 832 nM
TGI [42]: 14.2 µM
GI50 [43]: 2140 nM
TGI [43]: 11.2 µM
GI50 [44]: 10.8 µM
TGI [44]: 22.9 µM
GI50 [45]: 892 nM
TGI [45]: 9.05 µM
GI50 [46]: 1360 nM
TGI [46]: 9.34 µM
GI50 [47]: 2220 nM
TGI [47]: 11.7 µM
GI50 [48]: 383 nM
TGI [48]: 3.2 µM
GI50 [49]: 14.1 µM
TGI [49]: 27.1 µM
GI50 [50]: 5.48 µM
TGI [50]: 17.7 µM
GI50 [51]: 1200 nM
TGI [51]: 12.2 µM
GI50 [52]: 12.8 µM
TGI [52]: 25.5 µM
GI50 [53]: 15.9 µM
TGI [53]: 29.4 µM
GI50 [54]: 5.02 µM
TGI [54]: 17.7 µM
GI50 [55]: 2010 nM
TGI [55]: 15.6 µM
GI50 [56]: 1100 nM
TGI [56]: 2820 nM
GI50 [57]: 13.7 µM
TGI [57]: 26.6 µM
GI50 [58]: 20.5 µM
TGI [58]: 34.8 µM

CCCCCOC(=O)Nc1nc(=O)n(C2OC(C)C(O)C2O)cc1F (stereo not drawn)
GI50 [11]: > 46900 nM
TGI [11]: 99.8 µM
